Laboratory results reported in patent US20230174584A1, “Antibiotic Compounds” (priority 2019, published 2023).
Converted amounts (≈) assume the structure as drawn.

Experiments:
[1] = system: S. aureus 880 (BR-VRSA), NR-49120; test: MIC assay; format: cell-based, Staphylococcus aureus; conditions: S. aureus 880, NR-49120 VRSA
Protocol: (§1) The antibacterial activity of the compounds was tested against a panel of bacteria, including Gram-positive bacteria (S. aureus ATCC29213, S. aureus USA300, S. aureus LIM-2, NR-45881, S. aureus HIP13419, NR-46413, E. faecium E155, E. faecium E7314, E. faecium E980, E. faecalis E1246, E. faecalis E7406 and S. pneumonia 153). The antibacterial activity of the compounds was further tested against S. aureus NY-155, NR-46236, S. aureus HIP12864, NR-46074, S. aureus 880 (BR-VRSA), NR-49120, E. faecalis E1246, E. faecalis E7604, as well as some Gram-negative bacteria (Escherichia coli and Klebsiella pneumoniae). Minimum inhibitory concentrations (MICs) in μg/mL were performed according to the CLSI guidelines. From glycerol stocks, bacterial strains were cultured on blood agar plates and incubated at 37° C. for 18 h. A single colony was transferred to tryptic soy broth (TSB) with 0.002% polysorbate 80 (p80). For the Enterococcus, VISA and VRSA strains, the cultures were grown at 37° C. until the optical density of the suspension reached a level equivalent to the 0.5 McFarland standard. The bacterial suspensions were diluted in TSB with 0.002% p80 to reach a bacterial cell density of 10^6 CFU/mL. In case of the other (vancomycin-sensitive) S. aureus strains, the direct colony suspension method was used. For these strains, after transfer of the colonies to TSB with 0.002% p80, they were immediately diluted to 10^6 CFU/mL, instead of incubated prior to this dilution. In the case of S. pneumonia, direct colony suspension was used by immediately suspending multiple colonies from fresh blood agar plates in TSB+0.002% p80 to an OD600 of 0.5 and subsequent dilution to 10^6 CFU mL^−1 in TSB+0.002% p80+5% lysed horse blood. Antibiotic dilutions for this strains were also made in TSB+0.002% p80+5% lysed horse blood. Both agar and microplates containing S. pneumonia were incubated at 37° C. with 5% CO2 for 24 h with constant shaking (600 rpm). […] The cultures were grown to exponential phase (OD600=0.5) at 37° C. […] In polypropylene 96-well microtiter plates, test compounds were added in biological triplicates and serial diluted 2-fold by transfer and mixing from one well to the next to achieve a final volume of 50 μL per well. An equal volume of bacterial suspension (10^6 CFU mL^−1) was added to the wells. The plates were sealed with breathable membranes and incubated at 37° C. for 24 h with constant shaking (600 rpm). In polypropylene microtiter plates, 100 μL of the test compounds was added to the first row in biological triplicates, and 50 μL of media was added to the other wells. The compounds were subjected to serial dilution by transfer and mixing of 50 μL from one well to the next. Subsequently, 50 μL of bacterial suspension (10^6 CFU/mL) was added to the wells. The plates were sealed with breathable membranes and incubated at 37° C. for 24 h with constant shaking (600 rpm). Positive growth control consisted of wells with bacterial suspension and without antibiotic. Negative growth control consisted of solely media without bacterial suspension or antibiotic. The MICs were determined from the median of a minimum of triplicates.

[2] = system: S. aureus ATCC29213; test: MIC assay; format: cell-based, Staphylococcus aureus; conditions: S. aureus ATCC29213 MSSA
Protocol: as §1

[3] = system: S. aureus HIP12864, NR-46074; test: MIC assay; format: cell-based, Staphylococcus aureus; conditions: S. aureus HIP12864, NR-46074 VISA
Protocol: as §1

[4] = system: S. aureus LIM-2, NR-25881; test: MIC assay; format: cell-based, Staphylococcus aureus; conditions: S. aureus LIM-2, NR-25881 VISA
Protocol: as §1

[5] = system: S. aureus NY-155, NR-46236; test: MIC assay; format: cell-based, Staphylococcus aureus; conditions: S. aureus NY-155, NR-46236 MRSA
Protocol: as §1

[6] = system: S. aureus HIP13419, NR-46413; test: microbe, parasite or virus in culture; format: cell-based, Staphylococcus aureus; conditions: S. aureus HIP13419, NR-46413 VRSA
Protocol: as §1

[7] = system: S. aureus USA300; test: microbe, parasite or virus in culture; format: cell-based, Staphylococcus aureus
Protocol: as §1

[8] = system: E. faecium E980; test: MIC assay; format: cell-based, Enterococcus faecium; conditions: E. faecium E980 VSE
Protocol: as §1

[9] = system: E. faecium E155; test: microbe, parasite or virus in culture; format: cell-based, Enterococcus faecium; conditions: E. faecium E155 VRE (VanA)
Protocol: as §1

[10] = system: E. faecium E7314; test: microbe, parasite or virus in culture; format: cell-based, Enterococcus faecium; conditions: E. faecium E7314 VRE (VanB)
Protocol: as §1

[11] = system: E. faecalis E1246; test: MIC assay; format: cell-based, Enterococcus faecalis
Protocol: as §1

[12] = system: E. faecalis E7406; test: microbe, parasite or virus in culture; format: cell-based, Enterococcus faecalis; conditions: E. faecalis E7406 VRE (VanB)
Protocol: as §1

[13] = system: E. faecalis E7604; test: microbe, parasite or virus in culture; format: cell-based, Enterococcus faecalis; conditions: E. faecalis E7604 VRE (vanB)
Protocol: as §1

[14] = system: S. pneumoniae 153; test: MIC assay; format: cell-based; conditions: S. pneumoniae 153; TSB+0.002% p80+5% lysed horse blood
Protocol: as §1

[15] = system: MRSA USA300; test: MIC assay in the presence of sheep serum; format: cell-based, Staphylococcus aureus; conditions: MRSA USA300, TSB + 0.002% p80 + 50% sheep serum
Protocol: as §1
The activity of the compounds was further assessed against MRSA USA300 strain in the presence of sheep) serum in another MIC assay. The cultures that grew in the presence of serum used TSB+0.002% P80+50% sheep serum as growth media, as opposed to normal MICs done in only TSB+0.002% P80.

[16] = E. faecalis E1246 VRE (VanA), Table 7
[17] = E. faecalis E1246 VRE (vanA), Table 9

Row | Compound | MIC [1] [µg/mL] | MIC [2] [µg/mL] | MIC [3] [µg/mL] | MIC [4] [µg/mL] | MIC [5] [µg/mL] | MIC [6] [µg/mL] | MIC ([7]; MRSA USA300, TSB + 0.002% p80) [µg/mL] | MIC ([7]; S. aureus USA300 MRSA) [µg/mL] | MIC [8] [µg/mL] | MIC [9] [µg/mL] | MIC [10] [µg/mL] | MIC [11, 16] [µg/mL] | MIC [11, 17] [µg/mL] | MIC [12] [µg/mL] | MIC [13] [µg/mL] | MIC [14] [µg/mL] | MIC [15] [µg/mL]
1 | CCCCCCCCCCN(CCCCCCCCCC)C(N)=Nc1ccc(CN[C@@]2(C)C[C@H](O[C@H]3[C@H](Oc4c5cc6cc4Oc4ccc(cc4Cl)[C@@H](O)[C@@H](NC(=O)[C@@H](CC(C)C)NC)C(=O)N[C@@H](CC(N)=O)C(=O)N[C@H]6C(=O)N[C@H]4C(=O)N[C@H](C(=O)N[C@H](C(=O)O)c6cc(O)cc(O)c6-c6cc4ccc6O)[C@H](O)c4ccc(c(Cl)c4)O5)O[C@H](CO)[C@@H](O)[C@@H]3O)O[C@@H](C)[C@H]2O)cc1 [Compound 13] | 8 (≈ 4.26 µM) | 16 (≈ 8.52 µM) | 16 (≈ 8.52 µM) | 32 (≈ 17 µM) | 16 (≈ 8.52 µM) | 8 (≈ 4.26 µM) | 16 | 16 (≈ 8.52 µM) | 4 (≈ 2.13 µM) | 8 (≈ 4.26 µM) | 4 (≈ 2.13 µM) | 32 (≈ 17 µM) | 32 (≈ 17 µM) | 4 (≈ 2.13 µM) | 4 (≈ 2.13 µM) | 2 (≈ 1.07 µM) | 64
2 | CN[C@H](CC(C)C)C(=O)N[C@H]1C(=O)N[C@@H](CC(N)=O)C(=O)N[C@H]2C(=O)N[C@H]3C(=O)N[C@H](C(=O)N[C@H](C(=O)O)c4cc(O)cc(O)c4-c4cc3ccc4O)[C@H](O)c3ccc(c(Cl)c3)Oc3cc2cc(c3O[C@@H]2O[C@H](CO)[C@@H](O)[C@H](O)[C@H]2O[C@H]2C[C@](C)(NCc3ccc(N=C(N)NC/C=C(\C)CC/C=C(\C)CCC=C(C)C)cc3)[C@H](O)[C@H](C)O2)Oc2ccc(cc2Cl)[C@H]1O [Compound 15] | 0.5 (≈ 0.278 µM) | 0.03125 (≈ 0.0174 µM) | 0.125 (≈ 0.0694 µM) | 0.125 (≈ 0.0694 µM) | 0.125 (≈ 0.0694 µM) | 0.125 (≈ 0.0694 µM) | 0.063 | 0.0625 (≈ 0.0347 µM) | 0.03125 (≈ 0.0174 µM) | 0.125 (≈ 0.0694 µM) | 0.01562 (≈ 0.00867 µM) | 1 (≈ 0.555 µM) | 1 (≈ 0.555 µM) | 0.03125 (≈ 0.0174 µM) | 0.031 (≈ 0.0172 µM) | ≤0.008 | 1
